# Assays:
# [1] = tested on: mechanical allodynia induced by spinal nerve ligation in rats; assay: The rat (Chung) model of neuropathic pain; assay type: in vivo; details: for Withdrawal threshold (g) at peak effect: male Wistar rats, von Frey, vehicle 2.7 ± 0.2
# Method: The Rat (Chung) Model of Neuropathic Pain
# In this model, mechanical allodynia is induced by tight ligation of the left L5 spinal nerve.
# Male Wistar rats (228-301 g body weight at time of surgery) were employed in the study. Rats were placed on an elevated (˜40 cm) mesh floor in perspex boxes and the rats' withdrawal threshold to a mechanical stimulus (calibrated von Frey filaments) was measured using filaments of increasing force (2.6-167 mN). The von Frey filaments were applied to the plantar surface of the paw and threshold response determined using the up and down method. A positive response was noted if the paw was sharply withdrawn. A cut-off of 15 g was selected as the upper limit for testing. Following baseline measurements each animal was anaesthetised and the L5 spinal nerve tightly ligated. The animals were allowed to recover from the surgery for a period of at least three days. On the day of drug administration the paw withdrawal thresholds were re-measured (0 min). Immediately after this reading, the rats were dosed orally with vehicle or test compound and readings measured at various time points after compound administration.
# Data were expressed as mean±s.e.m. Statistical analysis was performed using the Kruskal-Wallis one-way analysis of variance, a non-parametric statistical test. Each of the treatment groups were then compared against the vehicle group, using the non-parametric Dunn's test.
# [2] = tested on: mechanical hyperalgesia induced by complete Freund's adjuvant in rats; assay: Mechanical hyperalgesia in the rat (CFA model of inflammatory pain); assay type: in vivo; details: for % Attenuation of hyperalgesia (peak effect): male Wistar rats, 24 h after CFA, reading 3 h post drug, vehicle −0.6 ± 11
# Method: Mechanical Hyperalgesia in the Rat
# In this rat model of inflammatory pain, inflammation is induced by subcutaneous injection of complete Freund's adjuvant (CFA) into the hind paw. The associated mechanical hyperalgesia is quantified by measuring the reduction in paw withdrawal threshold (PWT) to a mechanical compression of the paw.
# Experiments were in male Wistar rats weighing (141-175 g). In brief, the rats' paw withdrawal threshold (PWT) to a mechanical compression of the hind paw was measured (baseline reading) using a Randall-Sellito apparatus (Ugo Basile). A cut-off of 20 g was employed to minimise tissue damage to the paw. The animals were then lightly anaesthetised with isoflurane (1-3%) and CFA (0.1 ml.paw^−1) injected subcutaneously (s.c.) into the plantar surface of the left hind paw. The animals were then returned to their home cage and left for the inflammation to develop.
# Twenty four h after CFA injection, PWT's were re-measured (0 min) and immediately after this reading, rats were dosed orally with either vehicle or compound 3K (4.5-45 μmol/kg p.o.) Readings were then made at 3 h post drug administration.
# Data were plotted as mean±s.e.m. and compared between groups using the Kruskal-Wallis one-way analysis of variance, a non-parametric statistical test.
# The percent attenuation of mechanical hyperalgesia is calculated as follows.
structure (smiles),measurement,setting,value
"O=C1CN(Cc2ccc(-c3ccccc3CN3CCOCC3)cc2)C(=O)N1CC1CC1 [Example 3K, 3-Cyclopropylmethyl-1-(2′-(morpholin-4-ylmethyl)biphenyl-4-ylmethyl)imidazolidine-2,4-dione]",Withdrawal threshold (g) at peak effect,[1]; 4.5 μmol/kg p.o.,5.8 ± 1.1 g
same,Withdrawal threshold (g) at peak effect,"[1]; 15 μmol/kg p.o., p ≦ 0.05",6.4 ± 1.0 g
same,Withdrawal threshold (g) at peak effect,"[1]; 45 μmol/kg p.o., p ≦ 0.05",7.4 ± 1.3 g
same,Effect on mechanical allodynia,"[1]; 4.5-45 μmol/kg p.o., at 120 and 180 min post drug administration",attenuated mechanical allodynia in a dose-dependent fashion
same,Minimum effective dose (MED),"[1]; p.o., mechanical allodynia, rat",15 µmol/kg
same,% Attenuation of hyperalgesia (peak effect),[2]; 4.5 μmol/kg p.o.,36 ± 11%
same,% Attenuation of hyperalgesia (peak effect),"[2]; 45 μmol/kg p.o., p ≦ 0.001",100 ± 25 %
same,Effect on mechanical hyperalgesia induced by CFA,[2]; 4.5-45 μmol/kg oral,reversed mechanical hyperalgesia induced by CFA in a dose-dependent fashion
same,MED,"[2]; p.o., CFA-induced mechanical hyperalgesia, rat",4.4 µmol/kg
